According to patent US9834514B2, “Antibiotic sensitivity-restoring and photosensitive agents” (New Mexico Tech Research Foundation, priority 2015, dated 2017):

Experiments:
Format in all cases: cell-based
[1] = test system: K. pneumoniae ATCC BAA-2341; test: MIC of PMB and PME; settings: K. pneumoniae ATCC BAA-2341 (so in the source)
Text: (§1) TABLE 25 details the MICs of PMB and PME against E. cloacae and K. pneumoniae.

[2] = test system: E. cloacae ATCC BAA-2341; test: MIC of PMB and PME
Text: as §1

[3] = test system: P. aeruginosa; test: MIC against P. aeruginosa
Text: Only compound 1 was able to decrease the CFU/mL when used in conjunction with white light to treat P. aeruginosa.

[4] = test system: A. baumannii (ATCC 15151); test: MIC against A. baumannii
Description: TABLE 28 details the individual MIC values of compounds 1, 7, 8, 9, 10, 11, PMB, PME, and light against A. baumannii.
The MICs of PME and compounds 8-11 were determined against A. baumannii (ATCC 15151). […] After incubating the cells with PME, a compound (5 μM) was added, and the samples were further incubated at 37° C. At specific time points, samples were taken and diluted ten-fold in media. Ten microliters of each dilution was then drip-streaked onto an agar plate and incubated overnight at 37° C. Colony counts were then performed, and the CFU/mL were calculated.

[5] = test system: E. coli; test: MIC against E. coli
Text: TABLE 18 details the obtained MIC values for cells treated with compound 1, light, PMB, and Polymyxin E (PME) against E. coli.

[6] = test system: Klebsiella pneumoniae (CRE, ATCC BAA-1705); test: MIC against CRE
Description: TABLE 27 details the individual MIC values of compounds 1, 7, 8, 9, 10, 11, PMB, PME, and light against CRE.
The MICs of PME and compounds 8-11 were determined against Klebsiella pneumoniae (CRE, ATCC BAA-1705). […] After the incubation with PME, the compounds were added at a concentration of 20 μM, and the samples were further incubated. At specific time points, the samples were taken and diluted ten-fold in media. Ten microliters of each dilution was then drip-streaked onto an agar plate and incubated overnight at 37° C. Colony counts were then performed and the CFU/mL were calculated.

[7] = test system: Klebsiella pneumoniae (CRE, ATCC BAA-1705); test: Cell killing of CRE with compounds in presence or absence of PMB (CFU/mL); settings: PMB alone
Description: Klebsiella pneumoniae (CRE, ATCC BAA-1705) was grown in TSB overnight at 37° C. and diluted to about 5×10^5 CFU/mL using a McFarland Latex Turbidity standard (0.5). One mL of the cell suspension was transferred to a glass culture test tube. PMB was added to the cell suspension resulting in a final concentration of 200 μg/mL of PMB. The cell suspension was incubated at 37° C. on a rotary shaking incubator at 150 rpm for 4 hours. Compounds 1, 7, 8, 9, 10, and 11 were added to the cell suspension, resulting in a concentration of 20 μM for each of the compounds. The cell suspensions containing the compounds were incubated at 37° C. on a rotary shaking incubator at 150 rpm for 4 hours. Each sample was diluted tenfold to a 10^−5 dilution. Ten 10 microliters of each dilution from each sample was dripped onto a TSA plate and allowed to streak down the plate. The agar plates were incubated at 37° C. for 18-24 hours. Colony counts were performed and CFU/mL values were calculated.
The MICs of PMB and compounds 7-11 were determined against Klebsiella pneumoniae (CRE, ATCC BAA-1705). […] After the incubation with PMB, each of the compounds was added at a concentration of 20 μM, and the samples were incubated for an additional 18 hours. A sample was taken and diluted ten-fold in media. Ten microliters of each dilution was then drip-streaked onto an agar plate and incubated overnight at 37° C. Colony counts were then performed and the concentrations of cells (CFU/mL) were calculated.

Substance	MIC [1]	MIC [2]	MIC [3]	A. baumannii MIC [4]	E. Coli MIC [5]	CRE MIC [6]	PMB @ 0.2 μg/mL [7]
Polymyxin E [PME, reference compound]	16 µg/mL	16 µg/mL	2 µg/mL	0.5 µg/mL	2 µg/mL	4 µg/mL	–
polymyxin B [PMB, reference compound]	–	4 µg/mL	–	4 µg/mL	2 µg/mL	4 µg/mL	1.8 × 10^6 CFU/mL
